Reference: patent US10662150B2, “Sulfonic acid salt composition and use thereof for color stabilization” (L. BRÜGGEMANN GMBH & CO. KG, priority 2016, dated 2020)

Assay: Aqueous solubility according to OECD 105

| Compound | Solubility in water at 23° C. |
| --- | --- |
| 2-hydroxy-2-sulfonatoacetic acid disodium salt | 7% |
| O=C([O-])C(O)S(=O)(=O)[O-].[Zn+2] (centres unmarked) [Example 1, Zinc-Salt of 2-Hydroxy-2-Sulfonatoacetic Acid] | 39% |
